Among the data in US9556169B2, “Compounds and compositions for the treatment of parasitic diseases” (NOVARTIS AG, priority 2012, dated 2017) are EC50 values, retold here.

Like-named read-outs stand apart in the source and are kept apart here.

The test system of assay [1] is Plasmodium berghei line expressing luciferase (Pb-luc) sporozoites. As to the kind of experiment: Liver stage P. berghei luciferase proliferation assay in CD81-GFP-HepG2 cells. Type of assay: cell-based. On the procedure:
Liver Stage P. berghei Luciferase Proliferation Assay
CD81-GFP-HepG2 cells (obtained from the lab of Dominique Mazier) were seeded into GNF custom Greiner plates (1536-well, white, TC-treated, solid bottom). A final density of 3000 cells/well was achieved by dispensing 5 ul per well of a 600,000 cells/mL resuspended in Assay Media (AM; phenol-red free DMEM, 2% FBS, 5×PSG) via a MicroFlo (Biotek; 5 ul dispense cassette). The seeded assay plates were incubated overnight at 37° C. in an incubator with 5% CO2. The following day, a 10 nL volume of compound was transferred acoustically (ECHO 525, Labcyte Inc.) to each well in the assay plate. Sporozoite forms of a Plasmodium berghei line expressing luciferase (Pb-luc) were dissected and purified from infected Anopheles stephensi mosquitoes (provided by the NYU insectary) as previously described by Meister et al. (Science, 2011). Purified sporozoites (spz) were stored at 250 spz/uL in chilled PBS supplemented with 3% BSA. 3 uL of Pb-luc spz solution was dispensed to each assay well using a Bottlevalve equipped with a custom, single-tip dispense head (GNF Systems). Assay plates were centrifuged at 330×g for 3 minutes to pellet the spz, then the assay plates were returned to the 37° C. incubator for 48 h. Luciferase signal, which corresponds with parasite proliferation, was detected by adding 2 uL of BrightGlo (Promega) to each well using the MicroFlo (Biotek; 1 ul cassette). Luminescence was immediately measured on an Envision MultiLabel Plate Reader (PerkinElmer).

In assay [2] the test system is P. falciparum (NF54 or 3D7 strain). As to the kind of experiment: P. falciparum proliferation assay in infected human blood cells (SYBR Green). Type of assay: cell-based. Conditions: Plasmodium falciparum, Erythrocyte, read-out: EC50 (nM), inhibitory efficacy in delaying P. falciparum proliferation in infected human blood cells. The method, then: Assay for P. falciparum Proliferation in Infected Human Blood Cells
Compounds of the invention can be assayed to measure their capacity to inhibit proliferation of P. falciparum parasitemia in infected red blood cells. This parasite proliferation assay measures the increase in parasite DNA content using a DNA intercalating dye, SYBR Green® (INVITROGEN®) which has a high affinity for double stranded DNA.
NF54 or 3D7 P. falciparum strain is grown in complete culturing media until parasitemia reaches 3% to 8% with O+ human erythrocytes. […] 20 μl of screening media is dispensed into 384 well assay plates. 50 nl of compounds of the invention (in DMSO), including antimalarial controls (mefloquine, pyrimethamine and artemisinin), are then transferred into the assay plates, as well as DMSO alone to serve as a negative control for inhibition. Then 30 μl of a suspension of a NF54 or 3D7 P. falciparum infected erythrocytes in screening media is dispensed into the assay plates such that the final hematocrit is 2.5% with a final parasitemia of 0.3%. The plates are placed in a 37° C. incubator for 72 hours in a low oxygen environment containing 93% N2, 4% CO2, and 3% O2 gas mixture. 10 μl of lysis buffer (saponin, triton-X, EDTA) containing a 10× solution of SYBR Green I® in RPMI media is dispensed into the plates. The plates are lidded and kept at room temperature overnight for the lysis of the infected red blood cells. The fluorescence intensity is measured (excitation 425 nm, emission 530 nm) using the Envision™ system (Perkin Elmer). The percentage inhibition of 50%, EC50, is calculated for each compound.

Setting [3] is: values marked * in Table 2, CD81-GFP-HepG2 cells, 48 h, luminescence, read-out: EC50 (nM), P. berghei luciferase Proliferation Assay.
Where [4] appears, read: infected human erythrocytes, 72 hours, SYBR Green fluorescence.
[5] abbreviates: read-out: EC50, P. berghei luciferase Proliferation Assay.

On to `CNC(=O)c1ccc(-c2cnn3ccc(C(=O)N(c4ccc(C#N)cc4)C(C)C)cc23)cn1` [Example 146, N-(4-Cyanophenyl)-N-isopropyl-3-(6-(methylcarbamoyl)pyridin-3-yl)pyrazolo[1,5-a]pyridine-5-carboxamide], for which the EC50 was found to be 20 nM in assay [1] (setting [3]) and 45 nM in assay [2] (setting [4]).

Consider `CNC(=O)c1ccc(-c2cnn3ccc(C(=O)N(c4ccc(F)cn4)C(C)C)cc23)cn1` [Example 156, N-(5-fluoropyridin-2-yl)-N-isopropyl-3-(6-(methylcarbamoyl)pyridin-3-yl)pyrazolo[1,5-a]pyridine-5-carboxamide], for which the values for the EC50 in assay [1] (setting [3]) and in assay [2] (setting [4]) were 54 nM and 210 nM, respectively.

As for `CCN(C(=O)c1ccn2ncc(-c3ccc(C(=O)NC)nc3)c2c1)c1ccc(C#N)cn1` [Example 150, N-(5-cyanopyridin-2-yl)-N-ethyl-3-(6-[methylcarbamoyl]pyridin-3-yl)pyrazolo[1,5-a]pyridine-5-carboxamide], the results for the EC50 in assay [1] (setting [3]) and in assay [2] (setting [4]) were 19 nM and 51 nM, respectively.

With `CCN(C(=O)c1ccn2ncc(-c3ccc(C(=O)NC)cc3)c2c1)c1ccc(C(F)(F)F)cn1` [Example 96, N-ethyl-3-(4-(methylcarbamoyl)phenyl)-N-(5-(trifluoromethyl)pyridin-2-yl)pyrazolo[1,5-a]pyridine-5-carboxamide], the EC50 is at most 20 nM in assay [1] (setting [5]), 4 nM in assay [1] (setting [3]) and 12 nM in assay [2] (setting [4]).

Turning to `CCN(C(=O)c1ccn2ncc(-c3ccc(C(=O)NC)cc3)c2c1)c1ccc(C#N)c(OCCO)n1` [Example 162, N-(5-cyano-6-(2-hydroxyethoxyl)pyridin-2-yl)-N-ethyl-3-(4-(methylcarbamoyl)phenyl)pyrazolo[1,5-a]pyridine-5-carboxamide], the EC50 in assay [1] (setting [3]) turned out to be 8 nM; in assay [2] (setting [4]), 9 nM.

Turning to `CNC(=O)c1ccc(-c2cnn3ccc(N(C)C(=O)c4ccc(C#N)cn4)cc23)cc1` [Example 94, 5-cyano-N-methyl-N-(3-(4-(methylcarbamoyl)phenyl)pyrazolo[1,5-a]pyridin-5-yl)picolinamide], the EC50 in assay [1] (setting [5]) is at most 20 nM; in assay [1] (setting [3]), 13 nM; in assay [2] (setting [4]), 17 nM.

Regarding `CCN(C(=O)c1ccn2ncc(-c3ccc(S(C)(=O)=O)cc3)c2c1)c1ccc(C#N)cn1` [Example 158, N-(5-cyanopyridin-2-yl)-N-ethyl-3-(4-(methylsulfonyl)phenyl)pyrazolo[1,5-a]pyridine-5-carboxamide], the figures for the EC50 in assay [1] (setting [3]) and in assay [2] (setting [4]) were 11 nM and 111 nM, respectively.

As to `CNC(=O)c1ccc(-c2cnn3ccc(C(=O)N(c4ccc(C#N)cc4)C4CC4)cc23)nc1` [Example 141, N-(4-Cyanophenyl)-N-cyclopropyl-3-(5-(methylcarbamoyl)pyridin-2-yl)pyrazolo[1,5-a]pyridine-5-carboxamide], the EC50 amounted to 17 nM in assay [1] (setting [3]) and 65 nM in assay [2] (72 h).

Regarding `CNC(=O)c1ccc(-c2cnn3ccc(C(=O)N(c4ccc(C#N)cn4)C4CCC4)cc23)nc1` [Example 155, N-(5-Cyanopyridin-2-yl)-N-cyclobutyl-3-(5-(methylcarbamoyl)pyridin-2-yl)pyrazolo[1,5-a]pyridine-5-carboxamide], the EC50 in assay [1] (setting [3]) was 21 nM; in assay [2] (72 h) it was 82 nM.

Consider `CNC(=O)c1ccc(-c2cnn3ccc(C(=O)N(c4ccc(C#N)cc4)C4CCC4)cc23)cn1` [Example 145, N-(4-Cyanophenyl)-N-cyclobutyl-3-(6-(methylcarbamoyl)pyridin-3-yl)pyrazolo[1,5-a]pyridine-5-carboxamide], for which the values for the EC50 in assay [1] (setting [3]) and in assay [2] (setting [4]) were 8 nM and 12 nM, respectively.

Turning to `CNC(=O)c1ccc(-c2cnn3ccc(C(=O)N(c4ccc(C)cn4)C4CC4)cc23)cc1` [Example 136, N-Cyclopropyl-3-(4-(methylcarbamoyl)phenyl)-N-(5-methylpyridin-2-yl)pyrazolo[1,5-a]pyridine-5-carboxamide], the EC50 in assay [1] (setting [3]) turned out to be 10 nM.
